Measurements taken from ChEMBL document CHEMBL3352821, “Cyclic Hexapeptides from the Deep South China Sea-Derived Streptomyces scopuliridis SCSIO ZJ46 Active Against Pathogenic Gram-Positive Bacteria” (J Nat Prod, 2014).
Values after ≈ are worked out from the molar mass of the structure shown. Non-standard residues stand in square brackets, D forms with d. Residues, ends and D or L forms follow the SMILES beside them. aIle = CC[C@@H](C)[C@H](N)C(=O)O

Key:
[1] = test system: SF-268; test: Cytotoxicity against human SF268 cells after 72 hrs by SRB assay; type: functional, cell-based; details: SF-268, 72 h
[2] = test system: Staphylococcus aureus; test: Antimicrobial activity against Staphylococcus aureus ATCC 29213 by serial dilution/CLSI method; type: functional
[3] = test system: Staphylococcus epidermidis; test: Antimicrobial activity against methicillin-resistant Staphylococcus epidermidis shhs-E1 clinical isolate by serial dilution/CLSI method; type: functional
[4] = test system: Staphylococcus aureus; test: Antimicrobial activity against methicillin-resistant Staphylococcus aureus shhs-A1 clinical isolate by serial dilution/CLSI method; type: functional
[5] = test system: Streptococcus pneumoniae; test: Antimicrobial activity against Streptococcus pneumoniae NCTC 7466 by serial dilution/CLSI method; type: functional
[6] = test system: MCF7; test: Cytotoxicity against human MCF7 cells after 72 hrs by SRB assay; type: functional, cell-based; details: MCF7, 72 h
[7] = test system: Klebsiella pneumoniae; test: Antimicrobial activity against Klebsiella pneumoniae ATCC 13883 by serial dilution/CLSI method; type: functional
[8] = test system: NCI-H460; test: Cytotoxicity against human NCI-H460 after 72 hrs by SRB assay; type: functional, cell-based; details: NCI-H460, 72 h
[9] = test system: HepG2; test: Cytotoxicity against human HepG2 cells after 72 hrs by SRB assay; type: functional, cell-based; details: HepG2, 72 h

Row | SMILES | IC50 [1] [µM] | MIC [2] [µg/mL] | MIC [3] [µg/mL] | MIC [4] [µg/mL] | MIC [5] [µg/mL] | IC50 [6] [µM] | MIC [7] [µg/mL] | IC50 [8] [µM] | IC50 [9] [µM]
1 | CC(C)C[C@@H]1NC(=O)[C@H](Cc2c[nH]c3ccccc23)NC(=O)CNC(=O)[C@H](CC(N)=O)NC(=O)[C@H](C(C)C)NC(=O)[C@@H](CC(C)C)NC1=O | > 100 | 16 (≈ 23.4 µM) | 32 (≈ 46.9 µM) | > 128 | 12.5 (≈ 18.3 µM) | > 100 | > 128 | > 100 | > 100
2 | CC[C@@H](C)[C@@H]1NC(=O)[C@@H](CC(C)C)NC(=O)[C@H](CC(C)C)NC(=O)[C@H](CC(=O)c2ccccc2NC=O)NC(=O)CNC(=O)[C@H](CC(N)=O)NC1=O | > 100 | > 128 | > 128 | > 128 | > 100 | > 100 | > 128 | > 100 | > 100
3 | CC[C@@H](C)[C@@H]1NC(=O)[C@@H](CC(C)C)NC(=O)[C@H](CC(C)C)NC(=O)[C@H](CC(=O)c2ccccc2N)NC(=O)CNC(=O)[C@H](CC(N)=O)NC1=O | > 100 | > 128 | > 128 | > 128 | > 100 | > 100 | > 128 | > 100 | > 100
4 | CC[C@@H](C)[C@@H]1NC(=O)[C@@H](CC(C)C)NC(=O)[C@H](CC(C)C)NC(=O)[C@H](Cc2c[nH]c3ccccc23)NC(=O)CNC(=O)[C@H](CC(N)=O)NC1=O [DESOTAMIDE] (cyclo(GWL[dL][aIle]N)) | > 100 | 16 (≈ 23 µM) | 32 (≈ 45.9 µM) | > 128 | 12.5 (≈ 17.9 µM) | > 100 | > 128 | > 100 | > 100
5 | CN[C@H](CC(C)C)C(=O)N[C@H]1C(=O)N[C@@H](CC(N)=O)C(=O)N[C@H]2C(=O)N[C@H]3C(=O)N[C@H](C(=O)N[C@H](C(=O)O)c4cc(O)cc(O)c4-c4cc3ccc4O)[C@H](O)c3ccc(c(Cl)c3)Oc3cc2cc(c3O[C@@H]2O[C@H](CO)[C@@H](O)[C@H](O)[C@H]2O[C@H]2C[C@](C)(N)[C@H](O)[C@H](C)O2)Oc2ccc(cc2Cl)[C@H]1O [VANCOMYCIN] |  |  |  |  | 0.37 (≈ 0.255 µM) |  | > 128 |  | 
